Literature values as cited in US20150125548A1, “COMBINATION NUTRITIONAL AND NUTRACEUTICAL PRODUCTS” (Requis Pharmaceuticals Inc., priority 2011, published 2015).

How the values were obtained:
[1] = target: tryptophan hydroxylase (Mus musculus, UniProt Q8CGV2); conditions: 10 mM magnesium chloride added together with 1 mM ATP; 100,000 g supernatant from mouse midbrain
[2] = after absorption

Chain of tryptophan hydroxylase (Q8CGV2 whole entry): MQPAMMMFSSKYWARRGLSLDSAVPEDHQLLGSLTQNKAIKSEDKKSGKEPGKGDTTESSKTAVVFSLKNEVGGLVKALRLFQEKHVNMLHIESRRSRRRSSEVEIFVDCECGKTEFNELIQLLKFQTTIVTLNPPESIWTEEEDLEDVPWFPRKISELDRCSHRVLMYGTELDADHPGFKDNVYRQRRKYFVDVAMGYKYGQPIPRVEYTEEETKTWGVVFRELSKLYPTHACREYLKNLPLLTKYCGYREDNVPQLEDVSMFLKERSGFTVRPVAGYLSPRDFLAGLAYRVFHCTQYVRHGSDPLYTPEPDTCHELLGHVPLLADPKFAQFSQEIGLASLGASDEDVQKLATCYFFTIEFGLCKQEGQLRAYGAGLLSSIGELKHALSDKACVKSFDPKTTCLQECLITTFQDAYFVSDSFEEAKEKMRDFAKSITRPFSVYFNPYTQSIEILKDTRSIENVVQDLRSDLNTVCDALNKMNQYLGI

Row | fraction present in blood as the free amino acid (rest bound to plasma proteins) [2] | Compound | increase of enzyme activity above control [1]
1 |  | [Cl-].[Cl-].[Mg+2] [magnesium chloride] | 50-70%
2 | around 20% | N[C@@H](Cc1c[nH]c2ccccc12)C(=O)O [tryptophan, (2S)-2-amino-3-(1H-indol-3-yl)propanoic acid] | 
